# Publication PMC10747602, “Dose Response, Dosimetric, and Metabolic Evaluations of Replacement PFAS Perfluoro-(2,5,8-trimethyl-3,6,9-trioxadodecanoic) Acid (HFPO-TeA)” (Toxics, 2023)
# Where “and” joins values, the source holds several entries; their conditions need not be identical. Equal values may be shown once.
# Assay: Five-day oral gavage exposure: body weight, liver weights, clinical observations
# Format: in vivo, Sprague Dawley rats
# Details: for Body Weight Change / Liver Weight / Relative Liver Weight / Absolute Liver Weight / Body Weight Gain: 5 days
# Method: The in vivo exposure study was performed under a contract to Jacobs Technology, Inc. (Dallas, TX, USA; EP-C-15-008) and BioSpyder Technologies, Inc. (Carlsbad, CA, USA; 68HE0B20P0250). Animal handling was subcontracted out and performed by Integrated Laboratory Systems (ILS, Morrisville, NC, USA). All procedures followed Animal Welfare Act Regulations 9 CFR 1A, 1–4, and animals were handled and treated according to the Guide for the Care and Use of Laboratory Animals. Male and female Sprague Dawley rats (n = 36/sex) were purchased from Charles River Laboratory (Raleigh, NC, USA) and allowed to acclimate for 7–10 days before initial dosing. Animals were assigned to groups using analysis of variance (ANOVA) to ensure the mean body weights of the groups were not statistically different. Same-sex pairs were housed in polycarbonate cages (23 cm × 44 cm × 21 cm) with hardwood bedding (Northeastern Products Corp., Warrensburg, NY, USA), changed twice per week. Rats were kept in rooms maintained between 20.0 and 25.0 °C and 30.0 and 70.0% humidity while exposed to a 12 h light–dark cycle. Certified Purina Pico Chow No. 5002 (Ralston Purina Co., St. Louis, MO, USA) and reverse osmosis (RO)-treated tap water (City of Durham, NC, USA) were available ad libitum. Rats were 8–10 weeks old at the time of dosing and weighed between 228 and 302 g (males) and 208 and 232 g (females).
# Male and female rats (n = 4/sex, dose, and time point) were dosed by gavage (5 mL/kg bodyweight) once daily for five days with water (vehicle control) or HFPO-TeA at eight half-log dose levels ranging from 0.3 to 335.2 mg/kg/day (i.e., 0.3, 0.9, 2.3, 6.3, 17, 45.9, 124, and 335.2). The results reported here are part of a larger study, for which the main purpose was to use benchmark dose–response modeling of transcriptomic data to identify a gene set basis for the point of departure (POD).
# Clinical observations were performed prior to first administration and at termination. Moribundity and mortality were assessed twice daily on weekdays and once daily on weekends. Animals found moribund were euthanized by carbon dioxide inhalation and death was confirmed by cervical dislocation.
# Whole blood was collected from the retro-orbital plexus under isoflurane anesthesia 2 h following the first dose and by cardiac puncture 24 h after the last dosage. Blood was stored in anticoagulant potassium ethylenediaminetetraacetic acid (K3EDTA)-coated vacutainers, and then processed to isolate plasma via centrifugation. Animals were euthanized via carbon dioxide asphyxiation and subsequent exsanguination. Liver was collected, weighed, cubed, and divided into three aliquots. One aliquot of tissue was flash-frozen in liquid nitrogen and stored at −80 °C for analytical chemistry analyses. The remaining two aliquots were placed in RNALater and frozen for use in the companion transcriptomic study. Liver and plasma samples were received at the U.S. EPA Center for Computational Toxicology and Exposure, Advanced Analytical Chemistry Methods Branch in Research Triangle Park, North Carolina, USA, and stored at −80 °C prior to extraction.
# [1] = 0.3 mg/kg/day, F, individual rats
# [2] = 0.3 mg/kg/day, F, mean ± SD n=4
# [3] = 0.3 mg/kg/day, M, individual rats
# [4] = 0.3 mg/kg/day, M, mean ± SD n=4
# [5] = 0.9 mg/kg/day, F, individual rats
# [6] = 0.9 mg/kg/day, F, mean ± SD n=4
# [7] = 0.9 mg/kg/day, M, individual rats
# [8] = 0.9 mg/kg/day, M, mean ± SD n=4
# [9] = 2.3 mg/kg/day, F, individual rats
# [10] = 2.3 mg/kg/day, F, mean ± SD n=4
# [11] = 2.3 mg/kg/day, M, individual rats
# [12] = 2.3 mg/kg/day, M, mean ± SD n=4
# [13] = 6.3 mg/kg/day, F, individual rats
# [14] = 6.3 mg/kg/day, F, mean ± SD n=4
# [15] = 6.3 mg/kg/day, M, individual rats
# [16] = 6.3 mg/kg/day, M, mean ± SD n=4
# [17] = 17 mg/kg/day, F, individual rats
# [18] = 17 mg/kg/day, M, individual rats
smiles,measurement,setting,value
"O=C(O)C(F)(OC(F)(F)C(F)(OC(F)(F)C(F)(OC(F)(F)C(F)(F)C(F)(F)F)C(F)(F)F)C(F)(F)F)C(F)(F)F (centres unmarked) [HFPO-TeA, perfluoro-(2,5,8-trimethyl-3,6,9-trioxadodecanoic) acid]",Body Weight Change,[1],11.3 g and 8.5 g and 1.0 g and 5.1 g
same,Liver Weight,[1],10.2929 g and 10.0087 g and 10.5040 g and 10.1866 g
same,Relative Liver Weight,[1],4.458 g% and 4.431 g% and 4.573 g% and 4.489 g%
same,Absolute Liver Weight,[2],10.25 ± 0.2070 g
same,Body Weight Gain,[2],6.5 ± 4.4 g
same,Relative Liver Weight,[2],4.488 ± 0.062 g%
same,Body Weight Change,[3],28.2 g and 40.1 g and 48.5 g and 32.0 g
same,Liver Weight,[3],13.9494 g and 16.3796 g and 15.4580 g and 15.2495 g
same,Relative Liver Weight,[3],4.953 g% and 4.616 g% and 4.795 g% and 4.445 g%
same,Absolute Liver Weight,[4],15.2591 ± 1.0017 g
same,Body Weight Gain,[4],37.2 ± 9.0 g
same,Relative Liver Weight,[4],4.702 ± 0.220 g%
same,Body Weight Change,[5],8.6 g and 18.4 g and 10.4 g and 11.3 g
same,Liver Weight,[5],12.6621 g and 11.3910 g and 11.9531 g and 11.5466 g
same,Relative Liver Weight,[5],5.327 g% and 5.016 g% and 5.192 g% and 4.809 g%
same,Absolute Liver Weight,[6],11.8882 ± 0.5678 g
same,Body Weight Gain,[6],12.2 ± 4.3 g
same,Relative Liver Weight,[6],5.086 ± 0.224 g%
same,Body Weight Change,[7],46.0 g and 38.3 g and 37.4 g and 36.7 g
same,Liver Weight,[7],16.7977 g and 16.8117 g and 16.3850 g and 18.5738 g
same,Relative Liver Weight,[7],5.241 g% and 5.318 g% and 5.059 g% and 5.544 g%
same,Absolute Liver Weight,[8],17.1421 ± 0.9748 g
same,Body Weight Gain,[8],39.6 ± 4.3 g
same,Relative Liver Weight,[8],5.291 ± 0.201 g%
same,Body Weight Change,[9],21.5 g and 10.9 g and 8.5 g and 8.3 g
same,Liver Weight,[9],12.3341 g and 12.8755 g and 12.0585 g and 12.4504 g
same,Relative Liver Weight,[9],5.372 g% and 5.236 g% and 5.345 g% and 5.231 g%
same,Absolute Liver Weight,[10],12.4296 ± 0.3397 g
same,Body Weight Gain,[10],12.3 ± 6.2 g
same,Relative Liver Weight,[10],5.296 ± 0.073 g%
same,Body Weight Change,[11],37.5 g and 45.8 g and 38.2 g and 34.6 g
same,Liver Weight,[11],17.9851 g and 19.2395 g and 20.9175 g and 18.7875 g
same,Relative Liver Weight,[11],5.558 g% and 5.913 g% and 6.285 g% and 5.910 g%
same,Absolute Liver Weight,[12],19.2324 ± 1.2374 g
same,Body Weight Gain,[12],39.0 ± 4.8 g
same,Relative Liver Weight,[12],5.916 ± 0.297 g%
same,Body Weight Change,[13],-11.8 g and -21.3 g and -2.2 g and -35.7 g
same,Liver Weight,[13],10.2774 g and 9.4969 g and 12.9764 g and 9.4275 g
same,Relative Liver Weight,[13],4.807 g% and 5.025 g% and 6.242 g% and 5.243 g%
same,Absolute Liver Weight,[14],10.5446 ± 1.6664 g
same,Body Weight Gain,[14],-17.8 ± 14.3 g
same,Relative Liver Weight,[14],5.329 ± 0.634 g%
same,Body Weight Change,[15],27.5 g and 43.2 g and 31.7 g and 24.7 g
same,Liver Weight,[15],19.3187 g and 25.7576 g and 22.4062 g and 22.3377 g
same,Relative Liver Weight,[15],6.254 g% and 7.468 g% and 6.965 g% and 7.243 g%
same,Absolute Liver Weight,[16],22.4551 ± 2.6306 g
same,Body Weight Gain,[16],31.8 ± 8.1 g
same,Relative Liver Weight,[16],6.983 ± 0.527 g%
same,Body Weight Change,[17],-62.7 g and -52.1 g and -49.6 g and -56.3 g
same,Liver Weight,[17],9.7114 g and 9.8972 g and 9.1738 g and 9.9260 g
same,Relative Liver Weight,[17],6.002 g% and 5.659 g% and 5.567 g% and 5.958 g%
same,Absolute Liver Weight,"17 mg/kg/day, F, mean ± SD n=4",9.6771 ± 0.3488 g
same,Body Weight Gain,"17 mg/kg/day, F, mean ± SD n=4",-55.2 ± 5.7 g
same,Relative Liver Weight,"17 mg/kg/day, F, mean ± SD n=4",5.796 ± 0.216 g%
same,Body Weight Change,[18],-36.3 g and -50.7 g and -59.7 g and -59.2 g
same,Liver Weight,[18],13.4969 g and 13.8697 g and 12.4995 g and 13.1122 g
same,Relative Liver Weight,[18],5.386 g% and 5.593 g% and 5.511 g% and 5.909 g%
same,Absolute Liver Weight,"17 mg/kg/day, M, mean ± SD n=4",13.2446 ± 0.5851 g
same,Body Weight Gain,"17 mg/kg/day, M, mean ± SD n=4",-51.5 ± 10.9 g
same,Relative Liver Weight,"17 mg/kg/day, M, mean ± SD n=4",5.600 ± 0.223 g%
same,Abnormal clinical observations,"female rats, 6.3 mg/kg/day dose group",piloerection and thinness
same,Abnormal clinical observations (in addition),"female rats, 17 mg/kg/day dose group",coldness to touch and hunching
same,Abnormal clinical observations (alongside previous signs),"female rats, 45.9 mg/kg/day",Abnormal breathing
same,Abnormal clinical observations,"female rats, 124 mg/kg/day",decreased movement and lethargy
same,Abnormal clinical observations,"male rats, 17 and 45.9 mg/kg/day dose groups","lethargy, piloerection, thinness, hunching, coldness to touch, abnormal breathing, and decreased movement"
